Experimental data taken from article PMC9026280, “Reverse Electron Transfer by Respiratory Complex I Catalyzed in a Modular Proteoliposome System” (Journal of the American Chemical Society, 2022).

Key:
Type in all cases: biochemical
[1] = molecular target: T1, Complex I from Y. lipolytica (Yarrowia lipolytica, UniProt Q9B6E8+Q9UUT7+Q9UUU1+Q9UUU2); assay: NADH:O2 oxidoreduction (FET) in CI proteoliposomes with AOX, spectrophotometric; details: 200 μM NADH
T1 construct: gene nubm; complex purified from Y. lipolytica, whole multi-subunit enzyme, reconstituted in proteoliposomes with E. coli F1FO ATP synthase

[2] = molecular target: T2, complex I from mouse heart (Mus musculus) (Mus musculus, UniProt P03888+Q91WD5+Q91YT0+Q9DC70); assay: as above; details: 200 μM NADH, membrane Q10, pH 7.5, 32 °C
T2 construct: gene Ndufv1; native complex purified from mouse heart, whole multi-subunit enzyme, reconstituted in proteoliposomes with E. coli F1FO ATP synthase

[3] = molecular target: T2, complex I from mouse heart (Mus musculus); assay: NAD+ reduction by RET in CI-F1FO proteoliposomes with GlpD, spectrophotometric; details: Δp-linked RET; 1 mM NAD+, ATP, rac-G3P, β-CD, pH 7.5, 32 °C
P. pastoris complex I [4] = molecular target: T3, P. pastoris complex I (Komagataella pastoris, UniProt E1UWA8+E1UWB5+E1UWC2); assay: as above; details: membrane concentration, Δp-linked, ATP, rac-G3P, β-CD, preheated 37 °C 15 min, assay pH 7.5, 32 °C
T3 construct: gene nucm; native complex purified from P. pastoris, whole multi-subunit enzyme, reconstituted in proteoliposomes with E. coli F1FO ATP synthase; with NADH dehydrogenase [ubiquinone] flavoprotein 1, mitochondrial (51 kDa subunit)

P. pastoris complex I [5] = molecular target: T3, P. pastoris complex I; assay: NADH:O2 oxidoreduction (FET) in CI proteoliposomes with AOX, spectrophotometric; details: membrane Q10 concentration; 200 μM NADH, pH 7.5, 32 °C
[6] = molecular target: T4, complex I from B. taurus (bovine complex I) (Bos taurus, UniProt P03887+P17694+P25708+P42026); assay: as above
T4 construct: gene NDUFS2; AOX or GlpD added; with NADH dehydrogenase [ubiquinone] flavoprotein 2, mitochondrial; NADH-ubiquinone oxidoreductase 75 kDa subunit, mitochondrial; NADH dehydrogenase [ubiquinone] iron-sulfur protein 3, mitochondrial; NADH dehydrogenase [ubiquinone] iron-sulfur protein 8, mitochondrial; NADH-ubiquinone oxidoreductase chain 2; NADH-ubiquinone oxidoreductase chain 3; NADH-ubiquinone oxidoreductase chain 4; NADH-ubiquinone oxidoreductase chain 4L; NADH-ubiquinone oxidoreductase chain 5; NADH-ubiquinone oxidoreductase chain 6

With `NC(=O)C1=CN([C@@H]2O[C@H](COP(=O)(O)OP(=O)(O)OC[C@H]3O[C@@H](n4cnc5c(N)ncnc54)[C@H](O)[C@@H]3O)[C@@H](O)[C@H]2O)C=CC1` [NADH] the “NADH:O2 oxidoreduction (FET) in CI proteoliposomes with AOX, spectrophotometric” value ([1]; membrane Q10, pH 7.5, 32 °C) was “Complex I from Y. lipolytica consistently showed remarkably high rates of NADH oxidation in proteoliposomes” and the “NADH:O2 oxidoreduction (FET) in CI proteoliposomes with AOX, spectrophotometric” value [2] was “Representative FET activities for proteoliposomes containing complex I from B. taurus (Bt), M. musculus (Mm)”.

`NC(=O)c1ccc[n+]([C@@H]2O[C@H](COP(=O)(O)OP(=O)(O)OC[C@H]3O[C@@H](n4cnc5c(N)ncnc54)[C@H](O)[C@@H]3O)[C@@H](O)[C@H]2O)c1` [NAD^+] was tested, and the “NAD+ reduction by RET in CI-F1FO proteoliposomes with GlpD, spectrophotometric” value [3] was “by Δp-linked NAD^+ reduction (Figure 6B), that mouse complex I is capable of RET”.

For `COc1c(O)c(C)c(C/C=C(\C)CC/C=C(\C)CC/C=C(\C)CC/C=C(\C)CC/C=C(\C)CC/C=C(\C)CC/C=C(\C)CC/C=C(\C)CC/C=C(\C)CCC=C(C)C)c(O)c1OC` [Q10H2], the “KM (Q10H2)” value (P. pastoris complex I [4]) was “the KM for Q10H2 was again significantly higher than for Q10”.

`COC1=C(OC)C(=O)C(C/C=C(\C)CC/C=C(\C)CC/C=C(\C)CC/C=C(\C)CC/C=C(\C)CC/C=C(\C)CC/C=C(\C)CC/C=C(\C)CC/C=C(\C)CCC=C(C)C)=C(C)C1=O` [Q10] was tested, and the “NADH:O2 oxidoreduction (FET) in CI proteoliposomes with AOX, spectrophotometric” value ([1]; membrane Q10 as acceptor, pH 7.5, 32 °C) was “Complex I from Y. lipolytica consistently showed remarkably high rates of NADH oxidation in proteoliposomes” and the “KM (Q10)” value (P. pastoris complex I [5]) was “The KM values for both Q10 and Q10H2 were both lower for P. pastoris”.

With `C/C=C(\C)[C@H](O)[C@H](C)/C=C(C)/C=C/C/C(C)=C/Cc1nc(OC)c(OC)c(O)c1C` [piericidin A] the IC50 [6] was 7.8 ± 0.1 nM.
